Holding throughout (type): cell-based
For test [1], the system named is Staphylococcus aureus ATCC 6538. In words: MIC, agar incorporation test. To be noted: ATCC6538, 24 hours at 37° C. As for the experimental part: (§1) Determination of the Minimum Inhibitory Concentration (MIC) in the Agar Incorporation Test (MIC Test) [table] The plates are incubated at 37° C. for 24 hours (A. niger at 28° C. for 3 days) and then the highest dilution (lowest concentration) of the test substance at which growth is just no longer discernible (corresponds to the MIC) is determined.

Test [2] relates to Aspergillus niger ATCC 6275. In words: MIC, agar incorporation test. To be noted: ATCC6275, 72 h, 28° C. for 3 days. As for the experimental part: as §1
The test system of test [3] is C. minutissimum ATCC 23348. Briefly: MIC, agar incorporation test. To be noted: Corynebacterium minutissimum, ATCC23348, 24 hours at 37° C. How it is done: as §1
In test [4] the test system is Candida albicans ATCC 10231. In words: MIC, agar incorporation test. The settings on record: ATCC10231, 24 hours at 37° C. As for the experimental part:
as §1

Test [5] has as its system Corynebacterium xerosis ATCC 373. In words: MIC, agar incorporation test. The settings on record: ATCC373, 24 hours at 37° C. How it is done: as §1
Test [6] deals with Escherichia coli ATCC 10536. Briefly: MIC, agar incorporation test. To be noted: ATCC10536, 24 hours at 37° C. How it is done: as §1
The subject of test [7] is Escherichia coli NCTC 8196. In words: MIC, agar incorporation test. To be noted: NCTC8196, 24 hours at 37° C. How it is done: as §1
Test [8] deals with Klebsiella pneumoniae ATCC 4352. Briefly: MIC, agar incorporation test. To be noted: ATCC4352, 24 hours at 37° C. How it is done: as §1
Test [9] concerns Propionibacterium acnes ATCC 6919. Briefly: MIC, agar incorporation test. The settings on record: Cutibacterium acnes, ATCC6919, 24 hours at 37° C. How it is done: as §1
Test [10] concerns Proteus vulgaris ATCC 6896. In words: MIC, agar incorporation test. The settings on record: ATCC6896, 24 hours at 37° C. How it is done: as §1
For test [11], the system named is Pseudomonas aeruginosa ATCC 15442. Briefly: MIC, agar incorporation test. To be noted: ATCC15442, 24 hours at 37° C. How it is done:
as §1

In test [12] the test system is Salmonella choleraesuis ATCC 9184. Briefly: MIC, agar incorporation test. The settings on record: Salmonella enterica, 24 hours at 37° C. As for the experimental part: as §1
Test [13] relates to Staphylococcus epidermidis ATCC 12228. Briefly: MIC, agar incorporation test. To be noted: ATCC12228, 24 hours at 37° C. How it is done: as §1
In test [14] the test system is Actinomyces viscosus ATCC 43146. Briefly: Substantivity on hydroxyapatite and growth-inhibiting action. To be noted: discs pre-treated with artificial saliva, 30 minutes in ethanolic solution at 5 ppm; 24 hours at 37° C.; compared to untreated control. As for the experimental part:
Testing the Substantivity of 2-tert-butyl-4-n-octylamino-6-pyrid-2-yl-1,3,5-triazine (140) on Hydroxyapatite and Determination of the Growth-Inhibiting Action Hydroxyapatite discs (diameter 10 mm) are placed in artificial saliva (Deutsche Zahnärztliche Zeitschrift DZZ 5/2002) for 4 hours, rinsed 4 times in NaCl solution and then incubated for 30 minutes in an ethanolic solution of the test substance (140) at 5 ppm. The discs are then transferred to a Nunclon-surface titre plate (12 wells) and incubated at 37° C. for 24 hours in CASO nutrient medium inoculated with Actinomyces viscosus ATCC 43146 (about 10^5/ml).

The subject of test [15] is biofilm of a defined mixed culture of various gram+ and gram− oral micro-organisms and a yeast (Candida albicans). In words: Activity in the biofilm model (supragingival plaque on hydroxyapatite discs). From the text: Testing the Activity of 2-tert-butyl-4-n-octylamino-6-pyrid-2-yl-1,3,5-triazine (140) in the Biofilm Model Principle: See Guggenheim et al. (2001), “Validation of an in vitro biofilm model of supragingival plaque”, J. Dent Res. 80 (1). Hydroxyapatite discs are pre-treated with human saliva and a biofilm of a defined mixed culture of various gram+ and gram− oral micro-organisms (Streptococci, Actinomyces sp., Veillonella & Fusobacterium sp. and others) and a yeast (Candida albicans) is allowed to grow on the hydroxyapatite. Over the course of the test, which lasts a total of 4 days, the discs are immersed several times in an application formulation of the substance (0.5% (140)). Finally, the biofilm is harvested and the living cell count is determined.

One may read the MIC as the least concentration at which growth counts as inhibited. Read a high MIC as a need for much substance. In test [1], `CCCCCCCCCCCC(=O)Nc1nc(C)nc(-c2ccncc2)n1` [Compound of formula (123)] showed an MIC of 8 µg/mL.
Turning to `CCCCCCNc1nc(C)nc(-c2ccccn2)n1` [Compound of formula (131)], 30 µg/mL was the least that counted as inhibitory in [1] (MIC).
As to `CCCCCCNc1nc(C)nc(-c2cccnc2)n1` [Compound of formula (135)], in test [1], it took 60 µg/mL to inhibit growth (MIC).
As for `CCCCCCCCNc1nc(-c2ccccn2)nc(C(C)(C)C)n1` [Compound of formula (140), 2-tert-butyl-4-n-octylamino-6-pyrid-2-yl-1,3,5-triazine], the MIC in test [2] is greater than 120 µg/mL; in test [3], 0.94 µg/mL; in test [4], greater than 120 µg/mL; in test [5] it was 0.94 µg/mL; in test [6], 60 µg/mL; in test [7], 60 µg/mL. The MIC in test [8] is 120 µg/mL; in [9], 0.94 µg/mL; in [10], greater than 120 µg/mL; in [11], greater than 120 µg/mL; in test [12] it was 120 µg/mL; in [1], 0.94 µg/mL. This compound returned an MIC in test [13] of 120 µg/mL. For the same compound, in [14], the “inhibition of the growth of Actinomyces viscosus following adsorption onto hydroxyapatite discs” value is given as “inhibition of the growth”. For the same compound, in [15] (compared to placebo formulation and control containing 10% ethanol), the “action on microbial count of the biofilm (in words)” value is on record as “clear reduction in the microbial count”. Moreover, the “living cell count of biofilm (Mean)” value in [15] (hydroxyapatite discs pre-treated with human saliva, 4 days, discs immersed several times in application formulation (0.5% (140))) is recorded as 1.1 × 10^5 CPU/disc.

Source of the values: patent US7208597B2, “Pyridyl-triazine derivatives as microbiocidal active substances” (Ciba Specialty Chemicals Corporation, priority 2002, dated 2007).
